Test results taken from patent US10583119B2, “Compounds, compositions and methods for making the same” (Signum Biosciences, Inc., priority 2008, dated 2020).

Key:
[1] = system: N2a Neuroblastoma Cells; experiment: Cytotoxicity in N2a neuroblastoma cells (CellTiter 96 AQueous One); type: cell-based; conditions: all concentrations tested (1-50 μM)
Description: 2×10^4 N2a cells were plated in each well of a 96-well cell culture plate containing 100 pi EMEM (Gibco), supplemented with 10% FBS (N2a growth medium), and were incubated at 37° C. for 48 hours. On the day of treatment, stock solutions of […] of Compound I-63 in ethanol were further diluted with N2a growth medium to obtain Compound I-63-containing N2a medium with 50 μM, 10 μM, 5 μM and 1 μM Compound I-63. The final concentration of ethanol in all media dilutions was 1%, and therefore 1% ethanol was added to the 0 μM Compound I-63 (untreated) control. The media dilutions were applied to the N2a cells (100 µl per well) and incubated at 37° C. for 4 hours or 24 hours. At the end of the treatment period, cell media was removed and 100 μl of pre-warmed phenol red-free N2a growth media was added to each well. 20 µl of the CellTiter 96® AQueous One Solution (Promega) was added to each well and the dish was incubated at 37° C. for 1-4 hours until visible reddish color develops. The dish was read at a wavelength of 490 nm using a plate reader. N2a cells were grown in 96-well dishes and were treated for 4 hours (♦) or 24 hours (i) with increasing concentrations of Compound I-63. Cell survival was assayed using the CellTiter 96® AQueous One Solution (Promega) using the manufacturer's directions. […]

[2] = system: phosphorylated Tau; experiment: Phosphorylated tau in vivo, weekly up to 4 weeks (PHF1 Western blot of brain); parameters: species or system mice; conditions: 0.1% by weight in feed, mouse brain
Description: Swiss Webster mice ([…]) were fed ad libitum, either standard rodent chow (Control), or rodent chow formulated with 0.1 g Compound I-63 per 100 g chow (0.1% Compound I-63); water was changed weekly. Mice were housed at 23° C., on a 12 hour light and dark cycle, with 6 mice per cage. At weekly intervals up to 4 weeks, three and six mice from the Control and 0.1% Compound I-63 groups respectively were sacrificed by cervical dislocation, brains removed, snap-frozen in liquid nitrogen, and were stored at −80° C. Brains were homogenized in 350 pi of buffer containing 20 mM MOPS-Na, pH 7.2, 1 mM EDTA/DTT, 0.5 mg/L of aprotinin, leupeptin and pepstatin, 100 nM okadaic acid, and clarified by centrifugation (14,000 rpm, 10 min, 4° C.). Supernatant protein concentrations were measured by the Bradford method, 4 volumes of the supernatant and 1 volume of 5×SDS sample buffer were mixed and boiled for 2 minutes. 40 pg of the boiled homogenate were loaded on 12% polyacrylamide gels, and transferred to nitrocellulose membranes. Membranes are blocked in 5% BSA+TBST for 1 hour at room temperature, and incubated overnight at 4° C. with the following primary antibodies at the indicated dilutions: PHF1 mAb (recognizes phospho-Serine 396/404) at 1:2000, Tau-5 (Millipore; pan-tau mAb) at 1:10,000, and anti-GAPDH (Sigma mAb; used as loading control) at 1:50,000. Protein bands were detected with the ECL Plus reagent (GE Healthcare) and blots were exposed to Kodak XOmat film. Densitometric analyses were performed with ImageJ software. For relative phospho-tau levels of the Compound I-63-treated animals, the ratio of GAPDH-normalized phospho-tau to GAPDH-normalized total tau was further normalized to the corresponding ratios for the control group of mice. Error bars represent the standard error of the means.

[3] = system: MPTP Mouse Model of Parkinson's Disease; experiment: MPTP-induced neurotoxicity in MPTP mouse model of Parkinson's disease (striatal tyrosine hydroxylase ELISA); type: in vivo, C57BL/6J mice; conditions: acute MPTP 10 mg/kg four times, striatum
Source text: MPTP (1-methyl-4-phenyl-1,2,3,6-tetrahydropyridine) is routinely used as a chemical agent that induces Parkinson's disease-like neurodegeneration in cellular and animal models. Both Parkinson's Disease and MPTP-induced neurotoxicity are associated with a number of different biomarkers including reduction of tyrosine hydroxylase levels and activity. Tyrosine hydroxylase is a key enzyme in the dopamine biosynthesis pathway as it is involved in the conversion of tyrosine to […]. Tyrosine hydroxylase activity is regulated by its phosphorylation status and PP2A is known to be involved in this regulation.
C57BL/6J mice, aged 2-3 months were fed ad libitum, either standard rodent chow (Control), or rodent chow formulated with 0.1 g Compound I-63, or 0.001 g Compound I-63 per 100 g chow (0.1% and 0.001% Compound I-63, respectively); water was changed weekly. Mice were housed at 23° C., on a 12 hour light and dark cycle, with 6 mice per cage. After 2 weeks, 8-12 mice each from the Control, 0.1% Compound 1-63 and 0.001% Compound I-63 groups were injected with either saline, or 10 mg/kg MPTP i.e., four times, every 2 hours, on the same day. Mice were then maintained on their respective feeds for another week, at which point they were sacrificed by cervical dislocation and brains dissected for biochemical analyses.
Striatal tyrosine hydroxylase (TH) content was measured by ELISA as follows. Ninety-six well microliter plates (Thermo Labsystems) were incubated overnight at 4° C. with monoclonal anti-TH antibody (1:500; Calbiochem) in 8 mM sodium phosphate, 2 mM potassium phosphate, and 0.14 M sodium chloride, pH 7.4 (PBS). Wells were washed four times with PBS and then blocked for 1 hour using 5% (w/v) Carnation (Nestle) nonfat dry milk in PBS. Striatal tissue samples were homogenized by sonication in PBS-0.5% Triton X-100 (PBST) with 0.25% (w/v) SDS. […] The reaction product was measured fluorometrically within the linear range of detection (excitation:emission ratio of 530:580 nm). […] Data were expressed as percent TH levels in MPTP-treated mice relative to saline-injected mice. […]

**Q.** What does the source list for CCCCCCCCCCCCCCCCCCCC(=O)NCCc1c[nH]c2ccc(O)cc12 [Compound I-63, N-(2-(5-hydroxy-1H-indol-3-yl)ethyl)icosanamide]?
**A.** cell survival ([1]; 4 hours): over 85%; cell survival ([1]; 24 hours): over 85%; reduction in phosphorylation of tau compared to control ([2]; four weeks): ≥ 70%; reduction in phosphorylation of tau compared to control ([2]; three weeks): > 50%; reduction in phosphorylation of tau compared to control ([2]; two weeks): < 40%; rescuing of the tyrosine hydroxylase defect ([3]; 0.001% diet): approximately 20%; rescuing of the tyrosine hydroxylase defect ([3]; 0.1% diet): approximately 20%
